Data taken from PMC467089, “Click estradiol dimers with novel aromatic bridging units: synthesis and anticancer evaluation” (Journal of Enzyme Inhibition and Medicinal Chemistry, 2024).

What was measured:
[1] = system: CCRF-CEM lymphoblasts; test: BrU incorporation analysis (RNA synthesis); assay type: cell-based, human; conditions: for RNA synthesis, BrU incorporation (in words): 1× and 5×IC50, 24 h, gated remaining live cells
How it was run: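 CCRF-CEM cells were treated with compounds for 24 h, then pulsed with 1 mM BrU for 30 min and fixed in 1% paraformaldehyde/0.05% NP-40. BrU was detected with a cross-reacting anti-BrdU antibody and FITC secondary, with propidium iodide/RNase counterstain; value is percentage of BrU-positive cells by flow cytometry.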

[2] = system: CCRF-CEM lymphoblasts; test: Phospho-histone H3 (Ser10) mitotic marker, flow cytometry; assay type: cell-based, human
How it was run: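 Mitotic fraction scored by flow cytometry (488 nm) using Ser10-phosphorylated histone H3 antibody plus propidium iodide DNA stain, following RNase. CCRF-CEM lymphoblasts had 24 h compound exposure before ethanol fixation and Triton X-100 permeabilisation; events below G1 DNA content classed as fragmented-DNA, non-viable cells.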

[3] = system: CCRF-CEM lymphoblasts; test: Cell cycle analysis by flow cytometry (propidium iodide); assay type: cell-based, human
How it was run: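 CCRF-CEM cells treated 24 h, then fixed in cold 70% ethanol, permeabilised with 0.25% Triton X-100 and stained with anti-phospho-histone H3 (Ser10). After 50 μg/mL RNase and propidium iodide, analysed by flow cytometry at 488 nm; sub-G1 events counted as non-viable with fragmented DNA.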

[4] = system: HCT116p53−/− (p53 gene null variant of HCT116); test: MTS cytotoxicity assay, HCT116p53−/−; assay type: cell-based; conditions: Homo sapiens, HCT-116; MTS assay, 72-h incubation, mean ± SD of 3 independent experiments; read-out: IC50 cytotoxic activity HCT116p53-
How it was run: (§1)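 Overnight-seeded cells → fourfold serial compound dilutions (DMSO) → 72 h, 37 °C, 5% CO2 → MTS added. Duplicates ×3 biological reps.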

[5] = MTS cytotoxicity assay, MRC-5; assay type: cell-based; conditions: human, MRC-5 cells (non-tumour fibroblasts); MTS assay, 72-h incubation, mean ± SD of 3 independent experiments; read-out: IC50 cytotoxic activity MRC-5
How it was run: as §1

[6] = system: K562-TAX (paclitaxel-resistant variant of K562); test: MTS cytotoxicity assay, K562-TAX; assay type: cell-based, human; conditions: Homo sapiens, K562-Tax; MTS assay, 72-h incubation, mean ± SD of 3 independent experiments; read-out: IC50 cytotoxic activity K562-TAX
How it was run: as §1

[7] = system: CEM-DNR (daunorubicin resistant variant of CCRF-CEM); test: MTS cytotoxicity assay, CEM-DNR; assay type: cell-based, human; conditions: Homo sapiens, CEM-DNR; MTS assay, 72-h incubation, mean ± SD of 3 independent experiments; read-out: IC50 cytotoxic activity CEM-DNR
How it was run: as §1

[8] = system: CCRF-CEM lymphoblasts; test: BrDU incorporation analysis (DNA synthesis); assay type: cell-based, human
How it was run: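 Percentage of BrDU-incorporating cells was measured by flow cytometry after anti-BrdU/FITC and propidium iodide staining. Before that, CCRF-CEM lymphoblasts treated 24 h with compound received a 30-min 10 μM BrDU pulse, then ethanol fixation and 2 M HCl denaturation.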

Structure (SMILES)	BrU, % of positive cells ([1]; 1×IC50, 24 h) [%]	BrU, % of positive cells ([1]; 5×IC50, 24 h) [%]	pH3Ser10, % of positive cells ([2]; 1×IC50, 24 h) [%]	pH3Ser10, % of positive cells ([2]; 5×IC50, 24 h) [%]	<G1 (sub-G1, fragmented DNA), % of positive cells ([3]; 1×IC50, 24 h) [%]	>G2/M (polyploidy), % of positive cells ([3]; 1×IC50, 24 h) [%]	G0/G1, % of positive cells ([3]; 1×IC50, 24 h) [%]	G2/M, % of positive cells ([3]; 1×IC50, 24 h) [%]	S, % of positive cells ([3]; 1×IC50, 24 h) [%]	<G1 (sub-G1, fragmented DNA), % of positive cells ([3]; 5×IC50, 24 h) [%]	>G2/M (polyploidy), % of positive cells ([3]; 5×IC50, 24 h) [%]	G0/G1, % of positive cells ([3]; 5×IC50, 24 h) [%]	G2/M, % of positive cells ([3]; 5×IC50, 24 h) [%]	S, % of positive cells ([3]; 5×IC50, 24 h) [%]	IC50 [4] [µM]	IC50 at 72 h [5] [µM]	IC50 [6] [µM]	IC50 [7] [µM]	BrDU, % of positive cells ([8]; 1×IC50, 24 h) [%]	BrDU, % of positive cells ([8]; 5×IC50, 24 h) [%]	also measured
COc1cc(Cn2cc([C@]3(O)CC[C@H]4[C@@H]5CCc6cc(O)ccc6[C@H]5CC[C@@]43C)nn2)cc(Cn2cc([C@]3(O)CC[C@H]4[C@@H]5CCc6cc(O)ccc6[C@H]5CC[C@@]43C)nn2)c1 [ED3, (17β,17′β)-17,17′-[(5-Methoxybenzene-1,3-diyl)bis(methanediyl-1H-1,2,3-triazole-1,4-diyl)]bisestra-1,3,5(10)-triene-3,17-diol]	68.66	60.00	1.43	0.77	33.51	10.23	6.68	70.65	22.67	53.18	9.8	6.89	71.67	21.44	0.45 ± 0.039	> 50	> 50	> 50	7.81	3.23	RNA synthesis, BrU incorporation (in words) [1]: high rate of RNA synthesis; mitosis-specific phosphorylation of histone H3 (in words) ([2]; 1× and 5×IC50, 24 h): did not induce an increase of mitosis-specific phosphorylation of histone H3
C[C@]12CC[C@@H]3c4ccc(O)cc4CC[C@H]3[C@@H]1CC[C@@]2(O)c1cn(Cc2cccc(Cn3cc([C@]4(O)CC[C@H]5[C@@H]6CCc7cc(O)ccc7[C@H]6CC[C@@]54C)nn3)n2)nn1 [ED, reference compound]	34.33	15.43	8.08	48.71	11.51	11.2	33.48	25.59	40.93	22.78	23.1	2.50	59.11	38.39	0.9 ± 0.32	1.16 ± 0.25	> 50	> 50	19.54	15.94	–
C[C@]12CC[C@@H]3c4ccc(O)cc4CC[C@H]3[C@@H]1CC[C@@]2(O)c1cn(Cc2cc(Cn3cc([C@]4(O)CC[C@H]5[C@@H]6CCc7cc(O)ccc7[C@H]6CC[C@@]54C)nn3)cc(OCCO)c2)nn1 [ED5, (17β,17′β)-17,17′-{[5-(2-Hydroxyethoxy)benzene-1,3-diyl]bis(methanediyl-1H-1,2,3-triazole-1,4-diyl)}bisestra-1,3,5(10)-triene-3,17-diol]	65.14	66.40	6.27	0.34	29.35	6.16	35.53	26.90	37.57	36.87	10.73	13.42	61.48	25.09	1.98 ± 0.17	> 50	> 50	> 50	32.15	9.59	RNA synthesis, BrU incorporation (in words) [1]: high rate of RNA synthesis
